Columns and labels:
Assay in all cases: two-electrode voltage clamp, Xenopus oocytes
[1] = molecular target: T1, GluN1/GluN2A NMDA receptor (GluN1 ligand-binding site) (Rattus norvegicus, UniProt P35439, D732L); type: cell-based
T1 construct: gene Grin1; pcDNA3.1 inserts; mRNA-injected Xenopus laevis oocytes; hetero-tetramer

[2] = molecular target: T2, GluN1/GluN2A NMDA receptor (GluN1 ligand-binding site) (Rattus norvegicus, UniProt P35439); type: cell-based
T2 construct: gene Grin1; pcDNA3.1 inserts; mRNA-injected Xenopus laevis oocytes; hetero-tetramer

AKDF^19383 [3] = tested on: T3, AKDF^19383; type: cell-based, Trichoplax adhaerens; conditions: pH 7.5; -80 mV; agonist
T3 construct: gene TRIADDRAFT_19383; codon-optimized, modified pSP64-poly(A); Xenopus laevis oocytes; homo-tetramer

AKDF^19383 [4] = tested on: T3, AKDF^19383; type: cell-based, Trichoplax adhaerens; conditions: inhibition of constitutive current; pH 7.5; -80 mV
[5] = molecular target: T4, GluN1/GluN2A NMDA receptor (channel pore) (Rattus norvegicus, UniProt P35439+Q00959); type: cell-based; conditions: glycine and glutamate present; pH 7.3; -60 mV; open-channel block kinetics
T4 construct: gene Grin1; pcDNA3.1 inserts; mRNA-injected Xenopus laevis oocytes; hetero-tetramer

`O=C(O)c1cc(O)c2c(Cl)cc(Cl)cc2n1` [5,7-dichlorokynurenic acid] showed an IC50 [1] of 0.44 ± 0.12 µM and an IC50 [2] of 24.9 ± 5.2 µM.
For `N[C@H](CO)C(=O)O` [D-serine], the EC50 (AKDF^19383 [3]) was 490 ± 120 µM and the “% inhibition at 10 mM” value (AKDF^19383 [4]) was ~ 50%.
For `C[C@]12N[C@H](Cc3ccccc31)c1ccccc12` [MK-801], the “two-electrode voltage clamp, Xenopus oocytes” value [5] was “very similar kinetics of inhibition of WT and mutant receptors (Fig. 3A)”.
For `C[C@H](N)C(=O)O` [alanine], the “% inhibition at 10 mM” value (AKDF^19383 [4]) was ~ 50%.
`NCC(=O)O` [glycine] was tested, and the “% inhibition at 10 mM” value (AKDF^19383 [4]) was ~ 50%.
